Laboratory results: patent US20090036407A1, “FLEA CONTROL METHOD” (priority 2007, published 2009)

System: eggs of C. felis
Assay: Eggs and larvae of C. felis, egg to adult development assay (Test A, Test Example 1)
Assay type: in vivo
Conditions: 30 eggs x 3 replicates, 28 days
Method: Eggs and Larvae of C. felis—Egg to Adult Development Assay A larval support media was prepared consisting of 1 g dried bovine blood, 1 g dog biscuit and 5 g of fine sand. Two grams of the larval support media were placed into a 30 mL container for treatment with the test compound and drying. The test compound (3-bromo-N-[4-chloro-2-methyl-6-(methylcarbamoyl)phenyl]-1-(3-chloropyridin-2-yl)-1H-pyrazole-5-carboxamide) was prepared in acetone and serially diluted prior to testing. The concentrations used were as follows: 1 ug/uL, 0.5, 0.25, 0.125, 0.0625 ug/uL. 30 eggs of C. felis were placed into the culturing medium. Each concentration was replicated 3 times giving a total of 90 eggs per dose level. The untreated control was treated with acetone only. The containers were placed into a temperature and humidity controlled room and maintained for 28 days. After the incubation period had elapsed the containers were placed into a freezer for 1 hour. The adults and pupae were counted and % of adults and pupae that developed at each dose level was calculated. The activity was compared to Methoprene.

[1] = concentration 0.0625 (ug/uL) in treated larval support media
[2] = concentration 0.125 (ug/uL) in treated larval support media
[3] = concentration 0.25 (ug/uL) in treated larval support media
[4] = concentration 0.5 (ug/uL) in treated larval support media
[5] = concentration 1.0 (ug/uL) in treated larval support media

Compound	% eggs developed into adults [1] [%]	% eggs developed into adults [2] [%]	% eggs developed into adults [3] [%]	% eggs developed into adults [4] [%]	% eggs developed into adults [5] [%]
CNC(=O)c1cc(Cl)cc(C)c1NC(=O)c1cc(Br)nn1-c1ncccc1Cl [Test Compound, 3-bromo-N-[4-chloro-2-methyl-6-(methylcarbamoyl)phenyl]-1-(3-chloropyridin-2-yl)-1H-pyrazole-5-carboxamide]	18.9	0.0	0.0	0.0	0.0
COC(C)(C)CCC[C@H](C)C/C=C/C(C)=C/C(=O)OC(C)C (racemic) [Methoprene]	14.4	3.3	1.1	0.0	0.0
